Laboratory results taken from US20100075978A1, “SULFONAMIDE DERIVATIVES AS BRADYKININ ANTAGONISTS” (priority 2006, published 2010).
Where a name gives a salt, the structure may show the parent alone.

How the values were obtained:
[1] = biological target: T1, human recombinant bradykinin B1 receptor (Homo sapiens, UniProt P46663); test: Human recombinant bradykinin B1 receptor binding; settings: radioligand [3H]-[Des-Arg10] Kallidin, CHO cell membranes; read-out: B1 binding
T1 construct: purchased Euroscreen ES-091; host or cells: CHO cells
T1 sequence (P46663 1-353): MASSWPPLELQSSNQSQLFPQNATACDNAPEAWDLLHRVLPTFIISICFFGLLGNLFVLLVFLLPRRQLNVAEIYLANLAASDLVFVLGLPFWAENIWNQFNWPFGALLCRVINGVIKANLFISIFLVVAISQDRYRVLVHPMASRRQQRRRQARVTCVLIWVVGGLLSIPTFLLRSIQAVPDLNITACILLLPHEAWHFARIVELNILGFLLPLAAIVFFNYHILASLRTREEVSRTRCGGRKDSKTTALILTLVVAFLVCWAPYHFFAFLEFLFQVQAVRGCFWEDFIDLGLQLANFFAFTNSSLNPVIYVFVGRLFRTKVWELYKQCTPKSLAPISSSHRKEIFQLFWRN
Procedure: 1. Human Recombinant Bradykinin B1 Receptor Binding
Binding assays were carried out on human recombinant bradykinin) receptors (expressed in CHO cells) according to the Euroscreen Technical Data Sheet (Cat.No.:ES-091). 20 μg protein/tube was incubated with [3,4-prolyl-3,4-^3H(N)]-[Des-Arg^10] Kallidin as radioligand. Non specific binding was determined in the presence of 10 μM Lys-des-Arg^9-Bradykinin. The final incubation volume was 250 μl. Samples were incubated for 15 min. at 25° C. then were rapidly vacuum filtered through GF/B filters presoaked for at least 1 h in 0.5% PEI. Radioactivity was determined by liquid scintillation spectroscopy.

[2] = biological target: T2, recombinant human B1 receptors (Homo sapiens, UniProt P46663); test: Functional assay: cytosolic calcium ion concentration measured with plate reader fluorimeter in CHO-B1 cells, agonist LysDABK; format: cell-based; settings: CHO-B1 cells, LysDABK at EC80, [Ca2+]i; read-out: B1 func.
T2 construct: host or cells: CHO (CHO-B1)
T2 sequence (P46663 1-353): T1 sequence (P46663 1-353)
Procedure: Assessment of Antagonist Potency at B1 and B2 Receptors In Vitro by Measurement of Cytosolic Calcium Ion Concentration with a Plate Reader Fluorimeter in Cells Expressing Recombinant Human B1 or B2 Receptors
Chinese hamster ovary (CHO) cells stably expressing recombinant human B1 (CHO-B1, Euroscreen) or B2 (CHO-B2, Perkin-Elmer) receptors were cultured in Dulbecco's Modified Eagle's Medium (DMEM) containing 10% Fetal Calf Serum (FCS), 100 U/ml penicillin, 0.1 mg/ml streptomycin, 0.25 μg/ml amphotericin B, 1% Minimum Essential Medium Eagle (MEM), non essential amino acid solution, 600 μg/ml G418, 1% pyruvate (for the B2 cell line). Cells were kept at 37° C. in a humidified incubator in an atmosphere of 5% CO2/95% air and were passaged 1:4 three times a week. Cells were plated at 1.5-2.5×10^4 cell/well on standard 96-well microplates, measurements of cytosolic calcium ion concentration ([Ca^2+]i) were carried out 1-2 days after cell plating.
Measurements of [Ca^2+]i were carried out on CHO-B1 and CHO-B2 cells stably expressing human B1 and B2 receptors, respectively. Cells were grown in standard 96-well microplates and before the measurement were loaded with a fluorescent Ca^2+-sensitive dye, fluo-4/AM (2 μM): after removing the culture medium the dye was added to the cells (dissolved in assay buffer: 145 mM NaCl, 5 mM KCl, 2 mM MgCl2, 2 mM CaCl2, 10 mM HEPES, 20 mM D-glucose, 2 mM probenecid, 100 μl/well) and cells were incubated at 37° C. in a humidified incubator in an atmosphere of 5% CO2/95% air for 40-120 min. To stop dye loading cells were washed twice with assay buffer. After washing, various concentrations of the test compounds (diluted in extracellular medium from a DMSO stock solution, final DMSO concentration was <0.1%) or buffer were added to each well depending on the experimental setup. After incubation at 37° C. for 20-25 min. baseline and agonist-evoked changes of [Ca^2+]i were measured column by column with a plate reader fluorimeter (Fluoroskan Ascent, Labsystems). Excitation and detection of emission was carried out from the bottom of the plate. Filters used for Fluo-4: excitation filter—485 nm, emission filter—538 nm. The whole measurement process was performed at 37° C. and was controlled by custom software. Inhibitory potency of the test compounds was assessed by measuring the reduction in the agonist-evoked [Ca^2]i-elevation in the presence of different concentrations of the compounds. The agonists were LysDABK for CHO-B1, and bradykinin for CHO-B2 cells. Agonists were applied at an EC80 concentration, the EC80-values were derived from daily determined dose-response curves. Fluorescence data were expressed as ΔF/F (fluorescence change normalized to baseline). All treatments on a single plate were measured in multiple wells. Data from all wells with the same treatment were averaged and the average values were used for analysis. Inhibitory potency of a compound at a single concentration point was expressed as percent inhibition of the control agonist response. Sigmoidal concentration-inhibition curves were fitted to the data (derived from at least three independent experiments) and IC50-values were determined as the concentration that produces half of the maximal inhibition caused by the compound.

Question: For `O=C(CCNC(=O)c1ccc(S(=O)(=O)Nc2ccccc2Oc2ccc(Cl)cc2Cl)cc1)NCC1CCNCC1` [Example 37, 4-[2-(2,4-Dichloro-phenoxy)-phenylsulfamoyl]-N-{2-[(piperidin-4-ylmethyl)-carbamoyl]-ethyl}-benzamide acetate/hydrochloride mixed salt], which Ki [1] is on record?
Answer: 20 to 100 nM

Question: What about the IC50 [2] of the same compound?
Answer: 20 to 100 nM

Question: What does the source list for `Cc1ccnc(N2CCN(CCNC(=O)c3ccc(S(=O)(=O)Nc4ccccc4Oc4ccc(Cl)cc4Cl)cc3)CC2)c1` [Example 54, 4-[2-(2,4-Dichloro-phenoxy)-phenylsulfamoyl]-N-{2-[4-(4-methyl-pyridin-2-yl)-piperazin-1-yl]-ethyl}-benzamide]?
Answer: Ki [1]: 20 to 100 nM; IC50 [2]: 20 to 100 nM

Question: For `O=C(CCNC(=O)c1ccc(S(=O)(=O)Nc2ccccc2Oc2ccc(Cl)cc2Cl)cc1)NCCC1CCNCC1` [Example 56, 4-[2-(2,4-Dichloro-phenoxy)-phenylsulfamoyl]-N-[2-(2-piperidin-4-yl-ethylcarbamoyl)-ethyl]-benzamide hydrochloride], which Ki [1] is on record?
Answer: < 20 nM

Question: What about the IC50 [2] of the same compound?
Answer: 20 to 100 nM

Question: With `O=C(Nc1ccc(N2CCC(N3CCCCC3)CC2)cc1)c1ccc(S(=O)(=O)Nc2cc(F)ccc2Oc2ccc(Br)cc2)cc1` [Example 58, N-(4-[1,4′]Bipiperidinyl-1′-yl-phenyl)-4-[2-(4-bromo-phenoxy)-5-fluoro-phenylsulfamoyl]-benzamide] as the compound, how does the Ki [1] read?
Answer: < 20 nM

Question: And the IC50 [2]?
Answer: < 20 nM

Question: How did the Ki [1] turn out when `O=C(NCCC(=O)N1CCC(N2CCCCC2)CC1)c1ccc(S(=O)(=O)Nc2ccccc2Oc2ccc(Cl)cc2Cl)cc1` [Example 62, N-(3-[1,4′]Bipiperidinyl-1′-yl-3-oxo-propyl)-4-[2-(2,4-dichloro-phenoxy)-phenylsulfamoyl]-benzamide trifluoroacetate] was run?
Answer: < 20 nM

Question: What about the IC50 [2] of the same compound?
Answer: < 20 nM

Question: Which results are given for `O=C(N[C@H]1CC[C@H](CCN2CCCC2)CC1)c1ccc(S(=O)(=O)Nc2ccccc2Oc2ccc(Cl)c(Cl)c2)cc1` [Example 64, trans-4-[2-(3,4-Dichloro-phenoxy)-phenylsulfamoyl]-N-[4-(2-pyrrolidin-1-yl-ethyl)-cyclohexyl]-benzamide]?
Answer: Ki [1]: 20 to 100 nM; IC50 [2]: 20 to 100 nM

Question: `O=C(NCCCN1CCCCC1)c1ccc(S(=O)(=O)Nc2ccccc2Oc2ccc(Cl)cc2Cl)cc1` [Example 76, 4-[2-(2,4-Dichloro-phenoxy)-phenylsulfamoyl]-N-(3-piperidin-1-yl-propyl)-benzamide] was tested. Which Ki [1] did it give?
Answer: 20 to 100 nM

Question: What about the IC50 [2] of the same compound?
Answer: 20 to 100 nM

Question: What does the source list for `O=C(c1ccc(S(=O)(=O)Nc2ccccc2Oc2ccc(Cl)c(Cl)c2)cc1)N1CCN(CCCN2CCCCC2)CC1` [Example 87, N-[2-(3,4-Dichloro-phenoxy)-phenyl]-4-[4-(3-piperidin-1-yl-propyl)-piperazine-1-carbonyl]-benzenesulfonamide]?
Answer: Ki [1]: 100 to 500 nM; IC50 [2]: 100 to 500 nM

Question: How did the Ki [1] turn out when `O=C(NCCN1CCN(Cc2ccccn2)CC1)c1ccc(S(=O)(=O)Nc2ccccc2Oc2ccc(Br)cc2)cc1` [Example 99, 4-[2-(4-Bromo-phenoxy)-phenylsulfamoyl]-N-[2-(4-pyridin-2-ylmethyl-piperazin-1-yl)-ethyl]-benzamide] was run?
Answer: 20 to 100 nM

Question: What about the IC50 [2] of the same compound?
Answer: 20 to 100 nM

Question: What does the source list for `O=C(NCCCCC1CCNCC1)c1ccc(S(=O)(=O)Nc2ccccc2Oc2ccc(Br)cc2)cc1` [Example 101, 4-[2-(4-Bromo-phenoxy)-phenylsulfamoyl]-N-(4-piperidin-4-yl-butyl)-benzamide hydrochloride]?
Answer: Ki [1]: 20 to 100 nM; IC50 [2]: 20 to 100 nM

Question: For `O=C(NCCCN1CCC(N2CCCCC2)CC1)c1ccc(S(=O)(=O)Nc2cc(F)ccc2Oc2ccc(Br)cc2)cc1` [Example 102, N-(3-[1,4′]Bipiperidinyl-1′-yl-propyl)-4-[2-(4-bromo-phenoxy)-5-fluoro-phenylsulfamoyl]-benzamide], which Ki [1] is on record?
Answer: < 20 nM

Question: What about the IC50 [2] of the same compound?
Answer: < 20 nM

Question: For `O=C(NCCCN1CCN(c2ccncc2)CC1)c1ccc(S(=O)(=O)Nc2cc(F)ccc2Oc2ccc(Br)cc2)cc1` [Example 105, 4-[2-(4-Bromo-phenoxy)-5-fluoro-phenylsulfamoyl]-N-[3-(4-pyridin-4-yl-piperazin-1-yl)-propyl]-benzamide], which Ki [1] is on record?
Answer: < 20 nM

Question: What about the IC50 [2] of the same compound?
Answer: < 20 nM

Question: How did the Ki [1] turn out when `O=C(NCCCN1CCC(N2CCCCC2)CC1)c1ccc(S(=O)(=O)Nc2ccccc2Oc2ccc(Br)cc2)cc1` [Example 111, N-(3-[1,4′]Bipiperidinyl-1′-yl-propyl)-4-[2-(4-bromo-phenoxy)-phenylsulfamoyl]-benzamide] was run?
Answer: < 20 nM

Question: And the IC50 [2]?
Answer: < 20 nM

Question: What does the source list for `O=C(NCCCN1CCN(c2ccncc2)CC1)c1ccc(S(=O)(=O)Nc2ccccc2Oc2ccc(Br)cc2)cc1` [Example 114, 4-[2-(4-Bromo-phenoxy)-phenylsulfamoyl]-N-[3-(4-pyridin-4-yl-piperazin-1-yl)-propyl]-benzamide]?
Answer: Ki [1]: < 20 nM; IC50 [2]: < 20 nM

Question: For `O=C(NCCCN1CCC(N2CCCCC2)CC1)c1ccc(S(=O)(=O)Nc2ccccc2Oc2ccc(F)cc2Cl)cc1` [Example 116, N-(3-[1,4′]Bipiperidinyl-1′-yl-propyl)-4-[2-(2-chloro-4-fluoro-phenoxy)-phenylsulfamoyl]-benzamide], which Ki [1] is on record?
Answer: < 20 nM

Question: What about the IC50 [2] of the same compound?
Answer: < 20 nM

Question: How did the Ki [1] turn out when `O=C(N[C@H]1CC[C@H](CCN2CCCC2)CC1)c1ccc(S(=O)(=O)Nc2ccccc2Oc2ccc(F)cc2Cl)cc1` [Example 121, trans-4-[2-(2-Chloro-4-fluoro-phenoxy)-phenylsulfamoyl]-N-[4-(2-pyrrolidin-1-yl-ethyl)-cyclohexyl]-benzamide] was run?
Answer: 20 to 100 nM

Question: What about the IC50 [2] of the same compound?
Answer: 20 to 100 nM

Question: Which Ki [1] does the source give for `O=C(Nc1ccc(N2CCC(N3CCCCC3)CC2)cc1)c1ccc(S(=O)(=O)Nc2ccccc2Oc2ccc(C(F)(F)F)cc2)cc1` [Example 127, N-(4-[1,4′]Bipiperidinyl-1′-yl-phenyl)-4-[2-(4-trifluoromethyl-phenoxy)-phenylsulfamoyl]-benzamide] here?
Answer: 20 to 100 nM

Question: And the IC50 [2]?
Answer: < 20 nM

Question: With `O=C(NCCCN1CCC(N2CCCCC2)CC1)c1ccc(S(=O)(=O)Nc2ccccc2Oc2ccc(C(F)(F)F)cc2)cc1` [Example 129, N-(3-[1,4′]Bipiperidinyl-1′-yl-propyl)-4-[2-(4-trifluoromethyl-phenoxy)-phenylsulfamoyl]-benzamide] as the compound, how does the Ki [1] read?
Answer: 20 to 100 nM

Question: And the IC50 [2]?
Answer: 20 to 100 nM

Question: Which Ki [1] does the source give for `COc1cc(Cl)ccc1Oc1ccccc1NS(=O)(=O)c1ccc(C(=O)NCCCN2CCC(N3CCCCC3)CC2)cc1` [Example 132, N-(3-[1,4′]Bipiperidinyl-1′-yl-propyl)-4-[2-(4-chloro-2-methoxy-phenoxy)-phenylsulfamoyl]-benzamide] here?
Answer: < 20 nM

Question: And the IC50 [2]?
Answer: 20 to 100 nM

Question: How did the Ki [1] turn out when `O=C(NCCCCC1CCNCC1)c1ccc(S(=O)(=O)Nc2ccccc2Oc2ccc(F)cc2Cl)cc1` [Example 135, 4-[2-(2-Chloro-4-fluoro-phenoxy)-phenylsulfamoyl]-N-(4-piperidin-4-yl-butyl)-benzamide hydrochloride] was run?
Answer: 20 to 100 nM

Question: What about the IC50 [2] of the same compound?
Answer: 20 to 100 nM

Question: Which results are given for `O=C(NCCCC1CCNCC1)c1ccc(S(=O)(=O)Nc2ccccc2Oc2ccc(Cl)cc2Cl)cc1` [Example 137, 4-[2-(2,4-Dichloro-phenoxy)-phenylsulfamoyl]-N-(3-piperidin-4-yl-propyl)-benzamide trifluoracetate]?
Answer: Ki [1]: 20 to 100 nM; IC50 [2]: 20 to 100 nM
